Reference: the NIST ThermoML archive (doi:10.1016/j.jct.2018.09.037)
“And” between values parts separate entries of the source, which are not always exact repeats. Equal entries are not always repeated.

Columns and labels:
[1] = 100 kPa, Liquid, Electromagnetic levitation / mass taken directly, volume taken from sample image
[2] = xn = mol fraction of the nth substance listed; settings: 100 kPa, Liquid, Electromagnetic levitation / mass taken directly, volume taken from sample image

[Cu] [copper]
[1]
Settings	mass density [kg/m3]
1371 K	7884
1385 K	7849
1400 K	7875
1432 K	7821
1435 K	7819
1437 K	7806
1441 K	7827
1456 K	7799
1460 K	7828
1461 K	7826
1489 K	7770
1507 K	7792
1510 K	7755
1578 K	7716
1624 K	7673
1625 K	7665
1679 K	7628

[Cu] [copper] + [Pd]
[2], x2 = 0
Settings	mass density [kg/m3]
1371 K	7884
1385 K	7849
1400 K	7875
1432 K	7821
1435 K	7819
1437 K	7806
1441 K	7827
1456 K	7799
1460 K	7828
1461 K	7826
1489 K	7770
1507 K	7792
1510 K	7755
1578 K	7716
1624 K	7673
1625 K	7665
1679 K	7628

[Pd] [palladium]
[1]
Settings	mass density [kg/m3]
1790 K	10670
1795 K	10672
1796 K	10652
1802 K	10686
1809 K	10670
1820 K	10677
1831 K	10627
1843 K	10654
1856 K	10601
1878 K	10558
1889 K	10592
1890 K	10575
1917 K	10529
1935 K	10478
1951 K	10465

[Pd] [palladium] + [Cu]
[2]
Settings	mass density [kg/m3]
1374 K, x1 = 0.25	8847
1421 K, x1 = 0.25	8805
1469 K, x1 = 0.25	8762
1523 K, x1 = 0.25	8711
1523 K, x1 = 0.5	9468
1532 K, x1 = 0.5	9456
1562 K, x1 = 0.5	9412
1590 K, x1 = 0.25	8663
1617 K, x1 = 0.5	9371
1653 K, x1 = 0.5	9329
1654 K, x1 = 0.75	9987
1662 K, x1 = 0.5	9329
1678 K, x1 = 0.75	9964
1685 K, x1 = 0.25	8540
1708 K, x1 = 0.75	9936
1718 K, x1 = 0.5	9281
1753 K, x1 = 0.75	9886
1766 K, x1 = 0.5	9221
1784 K, x1 = 0.75	9853
1790 K, x1 = 1	10670
1795 K, x1 = 1	10672
1796 K, x1 = 1	10652
1802 K, x1 = 1	10686
1805 K, x1 = 0.5	9118
1809 K, x1 = 1	10670
1820 K, x1 = 1	10677
1822 K, x1 = 0.75	9805
1831 K, x1 = 1	10627
1843 K, x1 = 1	10654
1856 K, x1 = 1	10601
1857 K, x1 = 0.75	9728
1878 K, x1 = 1	10558
1889 K, x1 = 1	10592
1890 K, x1 = 1	10575
1917 K, x1 = 1	10529
1935 K, x1 = 1	10478
1951 K, x1 = 1	10465

[Pd] [palladium] + [Ni]
[2]
Settings	mass density
1474 K, x1 = 0.25	8842 kg/m3
1480 K, x1 = 0.5	9527 kg/m3
1488 K, x1 = 0.5	9518 kg/m3
1510 K, x1 = 0.25	8793 kg/m3
1513 K, x1 = 0.5	9495 kg/m3
1549 K, x1 = 0.5	9457 kg/m3 and 9456 kg/m3
1551 K, x1 = 0.25	8757 kg/m3
1563 K, x1 = 0.75	10175 kg/m3
1586 K, x1 = 0.5	9422 kg/m3
1589 K, x1 = 0.75	10157 kg/m3
1598 K, x1 = 0.75	10153 kg/m3
1611 K, x1 = 0.25	8707 kg/m3
1619 K, x1 = 0.75	10117 kg/m3
1630 K, x1 = 0.5	9386 kg/m3
1653 K, x1 = 0.75	10089 kg/m3
1668 K, x1 = 0.25	8661 kg/m3
1695 K, x1 = 0.5	9341 kg/m3
1701 K, x1 = 0.75	10023 kg/m3
1757 K, x1 = 0.25	8586 kg/m3
1770 K, x1 = 0.5	9275 kg/m3
1774 K, x1 = 0.75	9966 kg/m3
1790 K, x1 = 1	10670 kg/m3
1795 K, x1 = 1	10672 kg/m3
1796 K, x1 = 1	10652 kg/m3
1802 K, x1 = 1	10686 kg/m3
1809 K, x1 = 1	10670 kg/m3
1820 K, x1 = 1	10677 kg/m3
1831 K, x1 = 1	10627 kg/m3
1835 K, x1 = 0.75	9929 kg/m3
1843 K, x1 = 1	10654 kg/m3
1856 K, x1 = 1	10601 kg/m3
1859 K, x1 = 0.5	9186 kg/m3
1870 K, x1 = 0.25	8503 kg/m3
1878 K, x1 = 1	10558 kg/m3
1889 K, x1 = 1	10592 kg/m3
1890 K, x1 = 1	10575 kg/m3
1905 K, x1 = 0.75	9819 kg/m3
1917 K, x1 = 1	10529 kg/m3
1935 K, x1 = 1	10478 kg/m3
1951 K, x1 = 1	10465 kg/m3
